The NIST ThermoML archive (doi:10.1021/je900164a)

Experiment: xn = mol fraction of the nth substance listed
Conditions: 101 kPa, Liquid, Vibrating tube method

CNC(=O)NC [1,3-dimethylurea] + O
mass density [kg/m3]
Conditions	274.15 K	275.15 K	276.15 K	277.15 K	278.15 K	279.18 K	280.15 K
x1 = 0.000898	1000.36	1000.39	1000.4	1000.41	1000.41	1000.38	1000.35
x1 = 0.0018	1000.83	1000.85	1000.86	1000.87	1000.86	1000.83	1000.78
x1 = 0.00448	1002.26	1002.25	1002.26	1002.27	1002.23	1002.19	1002.14
x1 = 0.00893	1004.68	1004.65	1004.64	1004.63	1004.56	1004.5	1004.44
x1 = 0.01771	1009.58	1009.48	1009.4	1009.35	1009.26	1009.16	1009.05
x1 = 0.02461	1013.5	1013.35	1013.24	1013.14	1013.05	1012.89	1012.74
x1 = 0.03141	1017.27	1017.12	1016.94	1016.8	1016.7	1016.44	1016.24
x1 = 0.03815	1021.02	1020.73	1020.54	1020.37	1020.22	1019.9	1019.66
x1 = 0.04471	1024.43	1024.13	1023.92	1023.74	1023.58	1023.29	–
x1 = 0.05126	1027.8	1027.45	1027.2	1027.03	1026.87	1026.57	–
x1 = 0.06722	1035.64	1035.23	1034.87	1034.56	1034.3	1033.9	–
x1 = 0.08246	1042.41	1042.02	1041.67	1041.26	1040.88	1040.45	–
x1 = 0.09755	–	–	–	–	1046.81	1046.32	–
